Key:
A549 cells = experiment: MTT cytotoxicity assay, parental A549 cells; type: cell-based, Human; conditions: 96 hours exposure, mean of at least three experiments
Procedure: (§1) Tissue culture: Human non-small cell lung cancer A549 cells and T-cell leukemia CCRF-CEM cells were grown under monolayer conditions or up to a maximal density of 10^6 cells/ml (for CCRF-CEM cells) in RPMI-1640 medium (GIBCO) supplemented with 10% fetal calf serum, 2 mM glutamine, 100 μg/ml penicillin and 100 μg/ml streptomycin (Biological Industries, Beth-Haemek, Israel) in a humid atmosphere of 5% CO2. Drug resistant A549/K1.5 cells with ABCG2 overexpression were maintained under a continuous drug selection with 1.5 μM C-1305. Bram, E. E., et al., (2007) Biochem Pharmacol 74(1), 41-53.
(§2) Cytotoxicity and growth inhibition assays: The cytotoxic activity of the various IA antitumor agents was determined using the MTT assay. Poindessous, V., et al., (2003) Clin Cancer Res 9(7), 2817-2825.
(§3) Exponentially growing cells were seeded at 5×10^3 cells/well in 24-well plates (2 ml medium/well). Following an overnight incubation, cells were exposed to different drug concentrations for 96 hours. Cellular viability was determined by adding the tetrazolium salt MTT for 4 h at 37° C., followed by solubilization of the intracellular precipitated formazan in 1 ml DMSO and absorbance was determined by a microplate reader (ASYS Hitech GmbH, Austria). Drug concentrations required to inhibit cell growth by 50% (IC50) compared with untreated controls were determined from the curves of survival versus drug concentrations using the SlideWrite software (Advanced Graphics Software, Inc., Encinitas, Calif.). Resistance folds (RF) were calculated by dividing the IC50 value of the resistant cells by that of the parental cell line. Values presented are means of at least three independent experiments, each performed in duplicates.

[1] = molecular target: T1, FLT3 receptor tyrosine kinase (Homo sapiens, UniProt P36888); conditions: preclinical, from cited literature; cited from earlier work
T1 sequence (P36888 27-993): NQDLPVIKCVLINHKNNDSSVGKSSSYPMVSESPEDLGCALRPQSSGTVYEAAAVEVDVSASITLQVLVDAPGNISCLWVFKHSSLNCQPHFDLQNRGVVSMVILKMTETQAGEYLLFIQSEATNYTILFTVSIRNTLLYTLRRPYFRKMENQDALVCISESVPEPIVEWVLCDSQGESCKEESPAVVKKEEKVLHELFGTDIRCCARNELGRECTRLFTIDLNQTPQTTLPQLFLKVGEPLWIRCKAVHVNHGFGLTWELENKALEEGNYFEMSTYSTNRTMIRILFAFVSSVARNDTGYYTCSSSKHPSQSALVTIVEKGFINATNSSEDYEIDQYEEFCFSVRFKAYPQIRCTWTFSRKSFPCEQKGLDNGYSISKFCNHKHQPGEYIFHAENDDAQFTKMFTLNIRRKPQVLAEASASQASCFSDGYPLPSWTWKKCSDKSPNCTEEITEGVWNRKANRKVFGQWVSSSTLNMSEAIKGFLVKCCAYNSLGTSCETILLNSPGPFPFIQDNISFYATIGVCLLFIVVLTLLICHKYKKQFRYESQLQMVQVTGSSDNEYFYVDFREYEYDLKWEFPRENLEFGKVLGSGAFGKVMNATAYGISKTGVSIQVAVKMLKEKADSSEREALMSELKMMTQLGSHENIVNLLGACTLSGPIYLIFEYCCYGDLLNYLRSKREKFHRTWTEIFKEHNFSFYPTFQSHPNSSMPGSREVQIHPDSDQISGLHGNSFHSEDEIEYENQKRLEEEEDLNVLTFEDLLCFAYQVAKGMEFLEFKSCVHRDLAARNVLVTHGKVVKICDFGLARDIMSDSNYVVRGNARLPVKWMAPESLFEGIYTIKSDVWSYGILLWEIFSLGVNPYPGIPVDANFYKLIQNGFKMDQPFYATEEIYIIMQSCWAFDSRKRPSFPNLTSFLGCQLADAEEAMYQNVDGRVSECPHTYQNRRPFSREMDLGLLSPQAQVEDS

A549/K1.5 cells = experiment: MTT cytotoxicity assay, ABCG2-overexpressing A549/K1.5 cells; type: cell-based, Human; conditions: for resistance of A549/K1.5 cells (in words): versus parental A549 cells
Procedure: as §1, §2, §3
Quantitative evaluation of ABCG2 interaction with various IA derivatives: The extent of ABCG2-mediated resistance was expressed using the Resistance Fold (RF) parameter representing the ratio between the IC50 values of the resistant cells and parental cells. Likewise, ABCG2-dependent differential accumulation of IAs in ABCG2-overexpressing A549/K1.5 cells was compared using the ratio of IA accumulation in the presence or absence of the potent ABCG2 inhibitor FTC. This was termed the FTC-dependent Accumulation Fold (AF) and was determined for each IA at a constant IA concentration of 10 μM.

CCN(CC)CCNc1ccc2ncn3c4ccc(O)cc4c(=O)c1c23 [C-1311]
IC50 (A549 cells): 0.27 ± 0.012 µM | FLT3 receptor tyrosine kinase inhibition (in words) [1]: potent and selective FLT3 receptor tyrosine kinase inhibitor | IC50 (A549/K1.5 cells; ABCG2-overexpressing A549/K1.5 cells, 96 hours exposure, MTT): 2.34 ± 0.05 µM | RF (resistance fold) (A549/K1.5 cells; IC50 of A549/K1.5 cells divided by IC50 of parental A549 cells): 8.70 | resistance of A549/K1.5 cells (in words) (A549/K1.5 cells): prominent resistance | resistance of A549/K1.5 cells (in words) (A549/K1.5 cells; listed as Symadex): marked drug resistance
